The source of these data is patent US4400517A, “Phosphoric esters derived from 1,2,4-triazole having an insecticidal, nematocidal and acaricidal action, and their preparation” (priority 1976, dated 1983).

Molecules are shown by their SMILES.

The first data set has as its system Macrosiphum euphorbiae. The data set is described as follows: Biological activity on Macrosiphum euphorbiae (Aphides). Particulars: potato plants, 24 h. The class given is in vivo. The protocol: (1) Biological activity on Macrosiphum euphorbiae (Aphides)
Potato plants grown in pots were infested with adult females of aphides and, after several hours, were sprinked with an aqueous dispersion of the products under examination (see TABLE 5).
The percentage of mortality was assessed after 24 hours after the treatment (untreated plants=0).
With `CCCCn1nc(C=C(Cl)Cl)nc1OP(=S)(OCCC)OCCC` [M 8475], the “Activity (mortality class), Macrosiphum E.” value (“Activity … Macrosiphum E.” for short) was “± (10-69% of mort.)”.
`CCOP(=S)(OCC)Oc1nc(C(C)=C(Cl)Cl)nn1CC` [M 9141]: the “Activity … Macrosiphum E.” value is “++ (100% of mortality)”.
For the molecule `CCCOP(=S)(OCCC)Oc1nc(C=C(Cl)Cl)nn1C` [M 8448], the “Activity … Macrosiphum E.” value is reported as “++ (100% of mortality)”.
On the same count and under the same terms, as for `C=CCn1nc(C=C(Cl)Cl)nc1OP(=S)(OCC)OCC` [M 8764], the entry is “++ (100% of mortality)”.

The next data set relates to Pieris brassicae. The data set is described as follows: Biological activity on Pieris brassicae (Lepidoptera). Type of data set: in vivo. Particulars: 48 h, 0.01%o, Table 5, read-out: Activity (mortality class), Pieris B. The protocol: (2) Biological activity on Pieris brassicae (Lepidotera)
Cut-off cauliflower leaves were sprinkled with an aqueous dispersion of the products under examination (see TABLE 5).
After drying, the leaves were infested with 5-day old larvae. The percentage of mortality of the larvae (untreated leaves=0) was determined after 48 hours from treatment.
As a reminder, the mortality is the share of the test organisms that died. Turning to `CCCOP(=S)(OCCC)Oc1nc(C=C(Cl)Cl)nn1C` [M 8448], the mortality at 0.001 % was 10 to 69%.

The same data set, now with this note: 48 h, 1%o, Table 5, read-out: Activity (mortality class), Pieris B.
For the molecule `CCCOP(=S)(OCCC)Oc1nc(C=C(Cl)Cl)nn1C` [M 8448], the mortality at 0.1 % came out at 100%.
On the same count and under the same terms, as for `C=CCn1nc(C=C(Cl)Cl)nc1OP(=S)(OCC)OCC` [M 8764], the figure is 100%.

The same data set, now with this note: 48 h, read-out: Activity (mortality class), Pieris B.
On to `CCCCn1nc(C=C(Cl)Cl)nc1OP(=S)(OCCC)OCCC` [M 8475], for which the mortality at 0.1 % came out at 100%.
Regarding `CCOP(=S)(OCC)Oc1nc(C(C)=C(Cl)Cl)nn1CC` [M 9141], the mortality at 0.1 % came out at 100%.

The subject of a further data set is Leptinotarsa decemlineata. The data set is described as follows: Biological activity on Leptinotarsa decemlineata (Coleoptera). Type of data set: in vivo. The settings on record: 48 h, 0.05%o, Table 5, read-out: Activity (mortality class), Leptinotarsa D. The protocol: (3) Biological activity on Leptinotarsa decemlineata (Coleoptera)
Small potato plants grown in pots were infested with 4-day old larvae, and were then sprinkled with an aqueous dispersion of the products under examination (see Tables 4 and 5).
The mortality percentage (untreated small plants=0) was determined after 48 hours from treatment.
Turning to `CCCOP(=S)(OCCC)Oc1nc(C=C(Cl)Cl)nn1C` [M 8448], the mortality at 0.005 % turned out to be 100%.

Still in this data set, the particulars now being: 48 h, 1%o, Table 5, read-out: Activity (mortality class), Leptinotarsa D.
For the molecule `CCCOP(=S)(OCCC)Oc1nc(C=C(Cl)Cl)nn1C` [M 8448], the mortality at 0.1 % came to 100%.

Staying with this data set, now noted: 48 h, read-out: Activity (mortality class), Leptinotarsa D.
On to `CCCCn1nc(C=C(Cl)Cl)nc1OP(=S)(OCCC)OCCC` [M 8475], for which the mortality at 0.1 % was 100%.
With `CCOP(=S)(OCC)Oc1nc(C(C)=C(Cl)Cl)nn1CC` [M 9141], the mortality at 0.005 % is 100% and the mortality at 0.1 % was determined as 100%.
As to `C=CCn1nc(C=C(Cl)Cl)nc1OP(=S)(OCC)OCC` [M 8764], the mortality at 0.005 % was 100% and the mortality at 0.1 % amounted to 100%.

The test system of another data set is Culex pipiens. The data set is described as follows: Biological activity on Culex pipiens larvae (Diptera). The class given is in vivo. The settings on record: 24 h, 2 ppm, Table 5, read-out: Activity (mortality class), Culex P. (larvae). The protocol: (4) Biological activity on Culex pipiens (Diptera)
Into glasses containing an aqueous dispersion of the products under examination (see Tables 4 and 5) there were introduced mosquito larvae of third and fourth age.
The mortality percentage of the larvae (glasses containing pure water=0) was determined after 24 hours from treatment.
As for `CCCOP(=S)(OCCC)Oc1nc(C=C(Cl)Cl)nn1C` [M 8448], the mortality at 2 ppm was 100%.

Still in this data set, the particulars now being: 24 h, read-out: Activity (mortality class), Culex P. (larvae).
In the case of `CCCCn1nc(C=C(Cl)Cl)nc1OP(=S)(OCCC)OCCC` [M 8475], the mortality at 2 ppm turned out to be 100%.
In the case of `CCOP(=S)(OCC)Oc1nc(C(C)=C(Cl)Cl)nn1CC` [M 9141], the mortality at 0.02 ppm lay in the range of 70 to 99% and the mortality at 2 ppm worked out at 100%.
As for `C=CCn1nc(C=C(Cl)Cl)nc1OP(=S)(OCC)OCC` [M 8764], the mortality at 0.02 ppm was determined as 100% and the mortality at 2 ppm worked out at 100%.

Another data set has as its system Tetranychus urticae. The data set is described as follows: Biological activity on adults of Tetranychus urticae (Acari). The class given is in vivo. The settings on record: 24 h, 0.01%o, Table 5, read-out: Activity (mortality class), Tetranychus U. (adults). The protocol:
(5) Biological activity on adults of Tetranychus urticae (Acari)
Discs of bean leaves were infested with adult acari and then sprinkled with an aqueous dispersion of the products under examination (see Tables 4 and 5).
The mortality percentage was determined after 24 hours from treatment (untreated leaf discs, mortality=0).
For the molecule `CCCOP(=S)(OCCC)Oc1nc(C=C(Cl)Cl)nn1C` [M 8448], the mortality at 0.001 % came to 100%.

Still in this data set, the particulars now being: 24 h, 1%o, Table 5, read-out: Activity (mortality class), Tetranychus U. (adults).
Consider `CCCOP(=S)(OCCC)Oc1nc(C=C(Cl)Cl)nn1C` [M 8448], for which the mortality at 0.1 % was determined as 100%.

The same data set, now with this note: 24 h, read-out: Activity (mortality class), Tetranychus U. (adults).
In the case of `CCCCn1nc(C=C(Cl)Cl)nc1OP(=S)(OCCC)OCCC` [M 8475], the mortality at 0.1 % lay within 10 to 69%.
Take `CCOP(=S)(OCC)Oc1nc(C(C)=C(Cl)Cl)nn1CC` [M 9141]: the mortality at 0.001 % lay in the range of 10 to 69% and the mortality at 0.1 % was determined as 100%.
Taken in the same sequence, the figures for `C=CCn1nc(C=C(Cl)Cl)nc1OP(=S)(OCC)OCC` [M 8764] were 100% and 100%.

Another data set deals with Tetranychus urticae. The data set can be described thus: Biological activity on Tetranychus urticae eggs (Acari). Type of data set: in vivo. Particulars: bean leaf discs, 144 h. The protocol:
(6) Biological activity on Tetranychus urticae (Acari)
Small discs of bean leaves were infested with Acari eggs and were then sprinkled with an aqueous dispersion of the products under examination (see Table 5).
The mortality percentage was determined after 6 days from treatment (untreated leaf discs, mortality=0).
Take `CCCCn1nc(C=C(Cl)Cl)nc1OP(=S)(OCCC)OCCC` [M 8475]: the “Activity (mortality class), Tetranychus U. (eggs)” value is given as “++ (100% of mortality)”.
The same measure, in the same setting: as for `CCOP(=S)(OCC)Oc1nc(C(C)=C(Cl)Cl)nn1CC` [M 9141], the entry is “++ (100% of mortality)”; as for `CCCOP(=S)(OCCC)Oc1nc(C=C(Cl)Cl)nn1C` [M 8448], “++ (100% of mortality)”.
Take `C=CCn1nc(C=C(Cl)Cl)nc1OP(=S)(OCC)OCC` [M 8764]: the “Activity (mortality class), Tetranychus U. (eggs)” value is given as “++ (100% of mortality)”.

The next data set deals with Spodoptera littoralis. The data set is described as follows: Biological activity on Spodoptera littoralis (Lepidoptera). The class given is in vivo. Particulars: 48 h, 1%o, Table 5, read-out: Activity (mortality class), Spodoptera L. The protocol: (7) Biological activity on Spodoptera littoralis (Lepidoptera)
Cut tobacco leaves were sprinkled with an aqueous dispersion of the products under examination (see Tables 4 and 5).
After drying, the leaves were infested with 5-day old larvae.
The percentage of mortality of the larvae was determined after 48 hours from treatment (untreated leaves, mortality=0).
Take `CCCOP(=S)(OCCC)Oc1nc(C=C(Cl)Cl)nn1C` [M 8448]: the mortality at 0.1 % was 100%.

The data set is the same for the next values; noted with them: 48 h, read-out: Activity (mortality class), Spodoptera L.
On to `CCCCn1nc(C=C(Cl)Cl)nc1OP(=S)(OCCC)OCCC` [M 8475], for which the mortality at 0.1 % was in the range of 10 to 69%.
Still for that read-out and setting: the result for `CCOP(=S)(OCC)Oc1nc(C(C)=C(Cl)Cl)nn1CC` [M 9141] reads 100%.
As for `C=CCn1nc(C=C(Cl)Cl)nc1OP(=S)(OCC)OCC` [M 8764], the mortality at 0.005 % is 100% and the mortality at 0.1 % worked out at 100%.

The test system of a further data set is Blatta orientalis. The data set is described as follows: Biological activity on Blatta orientalis (Ortoptera). Type of data set: in vivo. The settings on record: Blatta orientalis, 48 h, read-out: Activity (mortality class), Blatta O. The protocol: (10) Biological activity on Blatta orientalis (Ortoptera)
The bottom and walls of glass crystallizers were treated uniformly with an acetonic solution of the products under examination (see Tables 4 and 5). After evaporation of the solvent, into each crystallizer were introduced ten 80-100 days old neanides. The crystallizers were then closed with a metal net cover. After 24 hours from the start of the treatment, the insects were transferred to similar untreated crystallizers, and there were appropriately nourished in conventional manner.
The percentage of mortality (untreated insects=0) was determined after 48 hours from the start of the treatment.
For `CCCCn1nc(C=C(Cl)Cl)nc1OP(=S)(OCCC)OCCC` [M 8475], the mortality at 1 g/m2 was in the range of 0 to 9%.
Still for that read-out and setting: the result for `CCOP(=S)(OCC)Oc1nc(C(C)=C(Cl)Cl)nn1CC` [M 9141] reads 100%.

The same data set, now with this note: Blatta orientalis, 48 h; 1 g/m^2; Table 5; read-out: Activity (mortality class), Blatta O.
For the molecule `CCCOP(=S)(OCCC)Oc1nc(C=C(Cl)Cl)nn1C` [M 8448], the mortality at 1 g/m2 amounted to 100%.
On the same count and under the same terms, the result for `C=CCn1nc(C=C(Cl)Cl)nc1OP(=S)(OCC)OCC` [M 8764] reads 100%.

In the next data set the test system is Locusta M. The data set is described as follows: Activity on Locusta M. The settings on record: in vivo.
Take `CCCCn1nc(C=C(Cl)Cl)nc1OP(=S)(OCCC)OCCC` [M 8475]: the “Activity (mortality class), Locusta M.” value was “± (10-69% of mort.)”.
Still for that read-out and setting: as for `CCOP(=S)(OCC)Oc1nc(C(C)=C(Cl)Cl)nn1CC` [M 9141], the entry is “++ (100% of mortality)”; as for `CCCOP(=S)(OCCC)Oc1nc(C=C(Cl)Cl)nn1C` [M 8448], “± (10-69% of mort.)”; as for `C=CCn1nc(C=C(Cl)Cl)nc1OP(=S)(OCC)OCC` [M 8764], “++ (100% of mortality)”.
